According to patent US7524512B2, “Composition and method for the prevention and relief of the symptoms of an incompetent or patulous Eustachian tube” (priority 2007, dated 2009):

Experiments:
[1] = system: patulous Eustachian tube syndrome; assay: Selected case studies: nose drops in patients with patulous / semi-patulous Eustachian tube syndrome; type: in vivo, human
Protocol: In an exemplary first administration protocol, the composition is administered in the form of nose drops, the patient sniffs them through the ipsilateral nostril on the side of the symptomatic ear affected with the disorder. The number of drops administered can be titrated to the needs of the individual patient. The patient can sniff from two to four drops of the solution, and the drops are sniffed back into the nostril so as to deliver the medication to the Eustachian tube opening in the back of the nose. Administration of the drops may be repeated again in four to six hours. As desired, the daily dose maybe increased to 4 drops per administration.
An exemplary nasal drop administration protocol has been developed for the first exemplary embodiment. To achieve normal closure of the lumen, 2-6 drops of the nasal supplement solution are applied to the stoma or opening of the Eustachian tube. It may take two weeks before changes in symptoms become apparent.
Referring to the illustrations in FIGS. 1 and 2 for reference, after the patient been up for a period of time, symptoms begin as the tubal tissues lose fluid and the lumen increases. When the patient feels the symptom of autophony is about to occur, gently blowing the nose to clear any mucous is accomplished.
With the patient 10 lying with head 12 between 45 to 60 degrees above horizontal. This places the Eustachian tube stoma (opening) lower than the nostril 16. Gravity will allow the drops to flow to the back of the nose. Sniffing will draw the drops further info the nasal passage to the Eustachian tube before the semi-permiable membrane lining of the nasal passage can absorb them. Alternatively while sitting in a chair, the head is tilted back at approximately 45 degrees and then tilted toward the affected ear to place it almost below the nose.
For nasal administration, to instill the drops, put the dropper tip one-quarter inch (¼″) into the lower nostril (affected side), closest to the symptomatic ear.
Instill 2-4 drops depending on individual anatomy. Sniffing briskly to draws the drops back approximately three inches (3″) to the location of the tube opening where they will be absorbed. The patient may feel a brief burning or stinging sensation when the drops are administered properly to stimulate the closure of the stoma of the tube. The patient then remains lying down in the administering position for ten (10) seconds.

[2] = system: otitis media / middle ear infection; assay: Case studies: treatment of otitis media, otitis media with effusion and middle ear infection; type: in vivo, human
Protocol: Modification of the composition and methods of treatment for otitis media (OM) and otitis media with effusion (OME) due to inflammatory disease of the middle ear epithelium, structures and specialized membranous tissues is described below. The inflammatory diseases of the middle ear and biofilm are treated herein treated by the following methods. The composition is preferably delivered through the natural opening at the nasopharyngeal orifice of the eustachian tube leading to the middle ear chamber. If this is not possible, a needle or myringotomy incision in made in the tympanic membrane (ear drum) via the external ear canal for the delivery of the embodiment, with or without a device, into the middle ear to chamber. The chamber is irrigated and the biofilm flushed by the exemplary embodiment of the composition delivered as described above.
In otitis media, the solution is topically applied to the Eustachian Tube mucosa in appropriate dosage forms for administration or delivered to the middle ear chamber by delivery through the stoma of the Eustachian Tube in the form of nasal drops, spray, aerosol, rinse, douche or gel. The delivery system may include the modified Politzer technique or catheter insufflation of the middle ear.
If the middle ear chamber is not easily accessible through its natural eustachian tubal stoma, the chamber can be reached directly by surgically penetrating or making an incision in the tympanic membrane of the lateral wall of the middle ear, as in a myringotomy.
In this way, the contaminated middle ear fluid, micro-organisms and biofilm adhesins seen in OME may be degraded and removed by a paracentesis (needle)or myringotomy (scalpel) incision of the tympanic membrane with aspiration of the fluid, under direct visualization. The middle ear fluids and debris are degraded and flushed out by rinsing with the composition of the exemplary embodiment delivered through the acquired opening into the middle ear chamber, in the form of nasal drops, spray, aerosol, rinse, douche, irrigation or gel. The composition, L-Ascorbic acid, in about 4% to 10% wt/vol in an aqueous solution, is employed through a surgically made incision or acquired defect in the tympanic membrane of the middle ear for the optimal characteristics or effects to reestablish Eustachian luminal patency, restore the rheologic properties of the membranous lining, to breakdown and eliminate the contained microorganisms, biofilm or abiotic toxins adhering to the membranes and coating any implanted device in the middle ear, to normalize surface tension and passive closing pressure, facilitating mucociliary clearance through the restored Eustachian tube orifice into the nasopharynx. The products are then swallowed and arrive in the stomach, where the endogenous enzymes and HCL of the stomach inactivate and digest and any residual microorganisms or proteinaceous products.
If a tympanic membrane rupture has occurred, as a complication or from specific trauma, the method of the delivery of the exemplary embodiment is modified for the maximum therapeutic effect of supporting healing of the damaged tympanic membrane. This is accomplished by the application of solid, porous or absorbable implanted devices or sculptured to the anatomical defect of the tympanic membrane and implanted under direct visualization employing a surgical microscope. A non-porous device or tube may be implanted for the delivery of the novel embodiment. The implanted device serves as a conduit through which the embodiment is administered via the external ear canal on a scheduled program for continuous availability of the composition of the exemplary embodiment to support tissue healing by pre-collagen formation and re-epithelization cardinal to middle ear functions.

[3] = Example A: child, 5% in aqueous saline, topical to nasal mucosa, one month after recovery from upper respiratory infection
[4] = Example C: person, 5% wt/vol aqueous solution on porous implanted device, daily, after three months

O=C1O[C@H]([C@@H](O)CO)C(O)=C1O [L-Ascorbic acid]
adverse side effects ([1]; Example I: person, three drops, 15% wt/vol in distilled water, nose drops): no adverse side effects were noted | patulous Eustachian tube syndrome (autophony) ([1]; Example I: person, three drops, 15% wt/vol in distilled water, sniffed into ipsilateral nostril, repeated six hours later): completely relieved | autophony symptom of an Incompetent Eustachian Tube ([1]; Example II: person, unilateral semi-patulous Eustachian tube syndrome, 20% wt/vol aqueous solution, pH 2.0, 2-4 drops per treatment): receded completely | adverse side effects ([1]; Example II: person, 20% wt/vol aqueous solution, pH 2.0, 2-4 drops): no adverse side effects | carcinogenic effect from daily administration of nose drops ([1]; Example IV: person after nasopharyngeal carcinoma resection, 15% wt/vol aqueous solution, pH 2.1, daily over several years): no carcinogenic effect | cytology studies of the right Eustachian tube area ([1]; Example IV: person, 15% wt/vol aqueous solution, pH 2.1, daily for several years): free of cancer | relief of PET symptoms ([1]; inventor (JD) as subject, two drops, 15% wt/vol. in distilled water, as needed, after one month): complete symptomatic relief | middle ear pressure ([2]; Example A: child, bilateral negative middle ear pressure, 5% in aqueous saline solution, nasal spray, over the next month): within normal limits | Eustachian Tube function [2, 3]: normal | middle ear infection or fluid on examination [2, 3]: no evidence of any middle ear infection or fluid | signs of infection ([2]; Example B: person, Corynebacterium, 5% wt/vol in physiologic saline, two times a day): no further signs of infection | middle ear drainage ([2]; Example B: person, right middle ear infection (Corynebacterium), 5% wt/vol in physiologic saline, trans canal through the perforation, two times a day, in five days): completely eliminated | mastoid / middle ear drainage ([2]; Example C: person, chronic right mastoiditis, total tympanic membrane perforation, 5% wt/vol aqueous solution on porous implanted device, daily, after three months): ceased | infection [2, 4]: free of infection | right eardrum perforation [2, 4]: healed closed | hearing ([2]; Example III: child, chronic otitis media with effusion, 4% wt/vol in physiologic saline, metered nasal spray after politzerization, after two weeks): hearing was restored | adverse side effects ([2]; Example III: child, 4% wt/vol in physiologic saline, metered nasal spray): no adverse side effects
